The term Kd denotes the constant that tells how readily two partners part at equilibrium.

Positions count from the first letter of the chain named. Where “and” joins values, the source holds several entries; their conditions need not be identical. Identical values can stand only once.

For assay [1], the target named is SUEL (Heliocidaris crassispina, UniProt P22031). The assay can be described thus: biochemical. Format: binding, sea urchin.
The target of assay [2] is T1, RBL K120A (Mus musculus, UniProt Q80TR1, K120A).
T1 construct: Analytical ultracentrifugation experiments on RBL (residues 30–134) and larger constructs indicated a monomer in solution; α-factor signal propeptide (secretion leader) (N, cleaved yes); made in house; host or cells: Pichia pastoris strain X-33
T1 sequence (Q80TR1 30-134 K120A): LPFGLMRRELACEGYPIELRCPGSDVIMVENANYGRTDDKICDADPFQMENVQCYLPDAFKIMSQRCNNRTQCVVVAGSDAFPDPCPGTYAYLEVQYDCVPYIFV
Briefly: NMR titration, RBL K120A mutant. Particulars: NBD = no binding detected.
Source text: (§1) (B) Ligand titrations induced chemical shift perturbations in the NMR spectra as indicated by arrows. (C) The extent of these perturbations was plotted against ligand concentration and fitted to extract equilibrium parameters using the equation Δδ=Δδsat(([P]+[L]+Kd)−([P]+[L]+Kd)^2−4[P][L])/2[P] , where [P] and [L] are protein and ligand concentrations, respectively, Δδ the shift perturbation measured for each titration point and Δδsat the perturbation at saturation. Multiple perturbed resonances can be fitted simultaneously to different Δδsat values for each resonance and a single Kd value. Equilibrium parameters (Ka) measured for different compounds under the same conditions are compared in a logarithmic plot with error bars derived from the fit (D).
(§2) We created substitutions in these two residues of RBL and determined carbohydrate affinity by NMR titrations (Table 1).
(§3) All experiments were performed at 30°C with home-built spectrometers, with 11.7 T, 14.1 T, 17.6 T, or 22.3 T field strengths. NMR samples consisted of 1–2 mM protein in a 20 mM sodium phosphate buffer (pH 7.0, 2 mM EDTA, 0.1 mM DSS, 0.02% NaN3) in 5% or 100% D2O, unless otherwise noted.

In assay [3] the target is T2, RBL E42A (Mus musculus, UniProt Q80TR1, E42A).
T2 construct: Analytical ultracentrifugation experiments on RBL (residues 30–134) and larger constructs indicated a monomer in solution; α-factor signal propeptide (secretion leader) (N, cleaved yes); made in house; host or cells: Pichia pastoris strain X-33
T2 sequence (Q80TR1 30-134 E42A): T1 sequence (Q80TR1 30-134 K120A) with E13A, A91K
The assay can be described thus: NMR titration, RBL E42A mutant. Particulars: NBD = no binding detected.
Source text: as §1, §2, §3

The target of assay [4] is T3, RBL K120R (Mus musculus, UniProt Q80TR1, K120R).
T3 construct: Analytical ultracentrifugation experiments on RBL (residues 30–134) and larger constructs indicated a monomer in solution; α-factor signal propeptide (secretion leader) (N, cleaved yes); made in house; host or cells: Pichia pastoris strain X-33
T3 sequence (Q80TR1 30-134 K120R): T1 sequence (Q80TR1 30-134 K120A) with A91R
The assay can be described thus: NMR titration, RBL K120R mutant. Particulars: NBD = no binding detected.
Source text: as §1, §2, §3

Assay [5] has as its target T4, RBL E42R (Mus musculus, UniProt Q80TR1, E42R).
T4 construct: Analytical ultracentrifugation experiments on RBL (residues 30–134) and larger constructs indicated a monomer in solution; α-factor signal propeptide (secretion leader) (N, cleaved yes); made in house; host or cells: Pichia pastoris strain X-33
T4 sequence (Q80TR1 30-134 E42R): T1 sequence (Q80TR1 30-134 K120A) with E13R, A91K
Briefly: NMR titration, RBL E42R mutant. To be noted: NBD = no binding detected.
Source text: as §1, §2, §3

In assay [6] the target is T5, RBL domain of mouse Lat-1 (WT) (Mus musculus, UniProt Q80TR1).
T5 construct: Analytical ultracentrifugation experiments on RBL (residues 30–134) and larger constructs indicated a monomer in solution; α-factor signal propeptide (secretion leader) (N, cleaved yes); made in house; host or cells: Pichia pastoris strain X-33
T5 sequence (Q80TR1 30-134): T1 sequence (Q80TR1 30-134 K120A) with A91K
Briefly: NMR chemical shift perturbation titration of carbohydrates, wild-type RBL. Format: binding. Particulars: for Kd / Kd, WT: NMR titration, 30°C, 20 mM sodium phosphate pH 7.0, error from curve fitting, NBD = no binding detected (up to 100 mM compound).
Source text: as §1
We studied the direct interaction of RBL with carbohydrates by monitoring NMR spectral perturbations induced by binding (Figures 1B–1D).
as §3

Assay [7] deals with T6, RBL domain of mouse Lat-1 (Mus musculus, UniProt Q80TR1).
T6 construct: Analytical ultracentrifugation experiments on RBL (residues 30–134) and larger constructs indicated a monomer in solution; α-factor signal propeptide (secretion leader) (N, cleaved yes); made in house; host or cells: Pichia pastoris strain X-33
T6 sequence (Q80TR1 30-134): T1 sequence (Q80TR1 30-134 K120A) with A91K
Briefly: Printed glycan array chip screen with AlexaFluor 488 labelled RBL (Consortium for Functional Glycomics). The assay is classed as binding.
Procedure: RBL extensively dialyzed against PBS was fluorescently labeled with the AlexaFluor 488 protein labeling kit (Invitrogen). After labeling, free dye was removed by gel filtration chromatography, and the labeling efficiency was estimated as 30%. Approximately 0.1 mg of labeled protein was provided to the Consortium for Functional Glycomics (National Institute of General Medical Sciences/National Institutes of Health) for screening in a printed glycan array chip (version 3.0, 320 glycan targets).

Chain of SUEL (P22031 whole entry): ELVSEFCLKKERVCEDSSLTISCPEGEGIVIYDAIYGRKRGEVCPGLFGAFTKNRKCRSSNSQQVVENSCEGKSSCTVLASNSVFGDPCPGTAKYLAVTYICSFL

With `C[C@@H]1OC(O)[C@H](O)[C@H](O)[C@H]1O` (stereo partly drawn) [L-rhamnose], the Kd was 0.1 to 0.2 mM in assay [1]; 1.8 mM and 1.78 mM in assay [6]. Moreover, the “affinity of SUEL relative to Lat-1 RBL (times tighter)” value in assay [1] (SUEL Kd vs Lat-1 RBL Kd 1.8 mM, ref Hosono et al., 1999) came out at 10. The “Kd, K120A” value in assay [2] was “NBD”. In addition, the “Kd, E42A” value in assay [3] is “NBD”. For the same molecule, the “Kd, K120R” value in assay [4] is “NBD”. Moreover, the “Kd, E42R” value in assay [5] is given as “NBD”.

`OC[C@H]1OC(O)[C@H](O)[C@@H](O)[C@@H]1O` (stereo partly drawn) [D-glucose]: the “Kd, WT” value in assay [6] was “NBD”.

Take `CC(=O)N[C@@H]1[C@@H](O)[C@@H](O)[C@@H](CO)O[C@@H]1O` [N-acetyl galactosamine]: the “Kd, WT” value in assay [6] was “NBD”.

As to “Galα1-3(Fucα1-2)Galβ1-3GlcNAcβ-Sp0 [glycan #95]”, the “binding on immobilized glycan array” value in assay [7] (fluorescently labeled RBL, glycan array version 3.0, 320 glycan targets, triplicate) is “any interaction”. Further, in assay [7] (glycan array version 3.0), the “level of fluorescent signal relative to what is commonly found in this assay” value is given as “approximately 1/20”. In assay [6] (NMR titration with glycan as ligand), the “binding in NMR titration compared to galactose” value is on record as “did not show stronger or altered binding compared to galactose”.

In the case of `C[C@H]1OC(O)[C@H](O)[C@@H](O)[C@H]1O` (stereo partly drawn) [D-fucose], in assay [6], the dissociation constant Kd worked out at 61 ± 1.3 mM.

Regarding `CC(=O)N[C@H]1[C@H]([C@H](O)[C@H](O)CO)OC(O)(C(=O)O)C[C@@H]1O` (stereo partly shown) [N-acetyl neuraminic acid], in assay [6], the “Kd, WT” value was “NBD”.

Consider `CC(=O)N[C@@H]1[C@@H](O)[C@H](O)[C@@H](CO)O[C@H]1O` [N-acetyl glucosamine], for which the “Kd, WT” value in assay [6] is on record as “NBD”.

Regarding `O[C@@H]1[C@@H](O)[C@@H](O)CO[C@H]1O` [L-arabinose], the Kd in assay [6] is 75 ± 1.3 mM.

As for `O=C[C@H](O)[C@@H](O)[C@H](O)[C@H](O)C(=O)O` [D-glucuronic acid], the “Kd, WT” value in assay [6] was “NBD”.

Take `C[C@@H]1O[C@@H](O[C@H]2C[C@@H](O)[C@]3(CO)[C@H]4[C@H](O)C[C@]5(C)[C@@H](C6=CC(=O)OC6)CC[C@]5(O)[C@@H]4CC[C@]3(O)C2)[C@H](O)[C@H](O)[C@H]1O` [Ouabain]: the Kd in assay [6] was determined as 2.21 ± 0.03 mM.

As for `C[C@H](O)[C@@H](O)[C@@H](O)[C@H](O)C=O` [L-fucose], the “Kd, WT” value in assay [6] is “NBD ^c”.

In the case of `OC[C@H]1O[C@H](OCC2O[C@@H](O)[C@H](O)[C@@H](O)[C@@H]2O)[C@H](O)[C@@H](O)[C@H]1O` (stereo partly shown) [Melibiose], in assay [6], the Kd was 33.3 ± 0.5 mM.

As to `OC[C@H]1OC(O)[C@H](O)[C@@H](O)[C@H]1O` (stereo partly drawn) [D-galactose], in assay [2], the “Kd, K120A” value is “NBD”. Besides, in assay [3], the “Kd, E42A” value was “NBD”. For the same molecule, in assay [4], the “Kd, K120R” value is on record as “NBD”. Further, in assay [5], the “Kd, E42R” value is “NBD”. Moreover, the Kd in assay [6] came out at 33.6 ± 0.4 mM.

For the molecule `OC[C@H]1OC(O)[C@@H](O)[C@@H](O)[C@@H]1O` (stereo partly drawn) [D-mannose], in assay [6], the “Kd, WT” value is recorded as “NBD”.

In the case of Heparin, the “Kd, WT” value in assay [6] is given as “NBD”.

Regarding `OC1OC[C@@H](O)[C@@H](O)[C@@H]1O` (stereo partly drawn) [D-arabinose], the “Kd, WT” value in assay [6] is “NBD”.

The values above are taken from PMC2430599, “Solution Structure and Sugar-Binding Mechanism of Mouse Latrophilin-1 RBL: a 7TM Receptor-Attached Lectin-Like Domain” (Structure(London, England:1993), 2008).
